By EC50 is commonly meant the midpoint of the concentration-response curve.

The experiment addresses T1, human IL-17AA (Homo sapiens, UniProt Q16552).
T1 construct: host or cells: HEK (human embryonic kidney) cells
T1 sequence (Q16552 24-155) 1: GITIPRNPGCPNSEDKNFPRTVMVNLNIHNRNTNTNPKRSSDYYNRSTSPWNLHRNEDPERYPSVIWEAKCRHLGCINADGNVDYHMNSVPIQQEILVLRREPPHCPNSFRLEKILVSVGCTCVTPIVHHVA
T1 sequence (Q16552 24-155) 2: T1 sequence (Q16552 24-155) 1
The experiment in a line: IL-8 release assay in human epithelial keratinocytes adult (HEKa). The settings on record: 3 ng/ml human IL-17AA + 10 ng/ml human TNFalpha, 68-72 h, IL-8 by HTRF, read-out: Rel EC50 L-8 release assay. It is filed as cell-based. As for the experimental part:
Example: IL-8 release assay in human epithelial keratinocytes adult (HEKa) Keratinocytes were seeded at 3500 cells/well in 384-well ViewPlates (Perkin Elmer) in Epilife medium (Thermo Fisher) containing human keratinocyte growth supplement (HKGS) without hydrocortisone and incubated in a humid incubator at 37° C., 5% CO2, overnight. The following day growth medium was removed and 25 μl fresh Epilife 10 medium added. 75 nl test compound in 100% DMSO was added into each well reserved
for test compounds, by the use of acoustic pipetting. The remaining wells received an equal volume of DMSO only, as vehicle control, or terfenadine in DMSO, as a positive control for any cytotoxic compounds. Subsequently, another 25 μl Epilife medium was added to each well. Finally, wells containing test compounds and wells prepared to yield 15 maximum stimulation received 25 μl of 9 ng/ml recombinant, human embryonic kidney cell (HEK)-derived human IL-17AA+30 ng/ml human TNF-alpha, in Epilife medium. Wells prepared to define 100% inhibition of IL-17 effects received 25 μl of 30 ng/ml human TNF-alpha alone, in Epilife medium. Final concentrations were 3 ng/ml HEKhuman IL-17AA+10 ng/ml human TNFalpha (maximum stimulation) and 10 ng/ml 20 human TNFalpha alone (100% inhibition, Emax), respectively. Cells were incubated for 68-72 h in the incubator. IL-8 released from the cells was measured by the use of a commercial homogenous time-resolved fluorescence (HTRF) assay (CisBio). 2 μl cell culture supernatant was transferred to a 384-well Proxiplate. 5 μl HTRF reagent was added and the plates incubated sealed in the dark for 3-22 h at room temperature. Time resolved fluorescence was read at 665 vs 620 nm, with excitation at 320 nm, and IL-8 levels calculated as percent of controls. Reduction of the amount of secreted IL-8 indicates decreased IL-17 signaling. Concentration response curves were fitted by the use of a four-parameter logistic equation. Relative IC50 and Emax were reported from 5 curves showing acceptable fit (r2>0.9). Cytotoxicity was measured in the cell-containing
Compounds of the present invention were tested in the IL-8 release assay in human epithelial keratinocytes.
In general terms: In TR-FRET formats the signal depends on donor and acceptor labels being close together.
Turning to `Cc1cnn(C)c1-c1ccc(NC(=O)[C@@H](NC(=O)C2(F)CC2)[C@@H]2CCc3ccc(-c4cc(C)c(=O)n(C(C)C)c4)cc32)cc1` [Example 355, N-[(1S)-2-[4-(2,4-dimethylpyrazol-3-yl)anilino]-1-[(1R)-6-(1-isopropyl-5-methyl-6-oxo-3-pyridyl)indan-1-yl]-2-oxo-ethyl]-1-fluoro-cyclopropanecarboxamide], the EC50 fell in the range of 100 to 1000 nM. In the case of `Cn1cncc1-c1ccc(NC(=O)C(Cc2cc(-c3cccc(C(C)(C)O)c3)ccc2Cl)NC(=O)c2ccnn2C)cc1` (stereo not drawn) [Example 179, N-[1-[[2-chloro-5-[3-(1-hydroxy-1-methyl-ethyl)phenyl]phenyl]methyl]-2-[4-(3-methylimidazol-4-yl)anilino]-2-oxo-ethyl]-2-methyl-pyrazole-3-carboxamide], the EC50 is less than 100 nM. Then `Cc1n[nH]c(C)c1-c1ccc(NC(=O)[C@@H](NC(=O)c2ccnn2C)[C@@H]2CCc3ccc(-c4ccc5c(c4)CNC5)cc32)cc1` [Example 1, N-[(1S)-2-[4-(3,5-dimethyl-1H-pyrazol-4-yl)anilino]-1-[(1R)-6-isoindolin-5-ylindan-1-yl]-2-oxo-ethyl]-2-methyl-pyrazole-3-carboxamide], with less than 100 nM.

With `Cc1ncn(C)c1-c1ccc(NC(=O)[C@@H](NC(=O)C2(F)CC2)[C@@H]2CCCc3ccc(-c4ccnc(N5C[C@H]6C[C@@H]5CN6)c4)cc32)cc1` [Example 389, N-[(1S)-1-[(1R)-7-[2-[(1R,4R)-2,5-diazabicyclo[2.2.1]heptan-2-yl]-4-pyridyl]tetralin-1-yl]-2-[4-(3,5-dimethylimidazol-4-yl)anilino]-2-oxo-ethyl]-1-fluoro-cyclopropanecarboxamide], the EC50 was in the range of 100 to 1000 nM. Then `Cc1n[nH]c(C)c1-c1ccc(NC(=O)[C@@H](NC(=O)c2ccnn2C)[C@@H]2CCc3ccc(-n4cnc(C(C)C)c4)cc32)cc1` [Example 361, N-[(1S)-2-[4-(3,5-dimethyl-1H-pyrazol-4-yl)anilino]-1-[(1R)-6-(4-isopropylimidazol-1-yl)indan-1-yl]-2-oxo-ethyl]-2-methyl-pyrazole-3-carboxamide], with 100 to 1000 nM; and `Cc1cnn(C)c1-c1ccc(NC(=O)[C@H](Cc2cc(-c3ccc(=O)n(C(C)C)c3)ccc2Cl)NC(=O)C2(F)CC2)cc1` [Example 119, N-[(1S)-1-[[2-chloro-5-(1-isopropyl-6-oxo-3-pyridyl)phenyl]methyl]-2-[4-(2,4-dimethylpyrazol-3-yl)anilino]-2-oxo-ethyl]-1-fluoro-cyclopropanecarboxamide], with 100 to 1000 nM; and `Cc1n[nH]c(C)c1-c1ccc(NC(=O)[C@@H](NC(=O)C2(F)CC2)[C@@H]2CCc3ccc(-c4cnn(C(C)(C)CN)c4)cc32)cc1` [Example 24, N-[(1S)-1-[(1R)-6-[1-(2-amino-1,1-dimethyl-ethyl)pyrazol-4-yl]indan-1-yl]-2-[4-(3,5-dimethyl-1H-pyrazol-4-yl)anilino]-2-oxo-ethyl]-1-fluoro-cyclopropanecarboxamide], with 100 to 1000 nM. Then `Cc1n[nH]c(C)c1-c1ccc(NC(=O)[C@@H](NC(=O)C2(F)CC2)[C@@H]2CCc3ccc(-c4ccc(=O)n(C(C)C)c4)cc32)cc1` [Example 6, N-[(1S)-2-[4-(3,5-dimethyl-1H-pyrazol-4-yl)anilino]-1-[(1R)-6-(1-isopropyl-6-oxo-3-pyridyl)indan-1-yl]-2-oxo-ethyl]-1-fluoro-cyclopropanecarboxamide], with 100 to 1000 nM; and `Cc1n[nH]c(C)c1-c1ccc(NC(=O)[C@@H](NC(=O)C2(F)CC2)[C@@H]2CCCc3ccc(-c4ccc(=O)n(C(C)C)c4)cc32)cc1` [Example 27, N-[(1S)-2-[4-(3,5-dimethyl-1H-pyrazol-4-yl)anilino]-1-[(1R)-7-(1-isopropyl-6-oxo-3-pyridyl)tetralin-1-yl]-2-oxo-ethyl]-1-fluoro-cyclopropanecarboxamide], with less than 100 nM.
